The test system of the assay is T1, purified C. viswanathii lipase.
T1 construct: native extracellular lipase from solid-state culture, Octyl Sepharose purified
Nature of the assay: p-nitrophenol release at […] nm, Lineweaver-Burk plot. The class given is biochemical, Candida viswanathii. As to conditions: 0.0 to 1.0 mM p-NPP; pH and temperature of the kinetic assay not given; free enzyme.

As for `CCCCCCCCCCCCCCCC(=O)Oc1ccc([N+](=O)[O-])cc1` [p-NPP, p-nitrophenyl palmitate], the Km was determined as 120 µM.

For the origin of these results see paper PMC5048095, “Agroindustrial Wastes as Alternative for Lipase Production by Candida viswanathii under Solid-State Cultivation: Purification, Biochemical Properties, and Its Potential for Poultry Fat Hydrolysis” (Enzyme Research, 2016).
